Reference: patent US6555565B2, “Apoptosis inhibitor” (Takeda Chemical Industries, Ltd., priority 1997, dated 2003)

Each molecule was assayed on mouse fibroblast (L929 cells, IFO 50409) (assay: TNF-α-induced apoptosis (cell death) of L929 cells, crystal violet staining of living cells). Conditions: test compound final concentration 1 μM, 72 hours cultivation, relative to dexamethasone (final concentration 1.1 μM) = 100.
Type: cell-based
Procedure: Apoptosis (cell death) was induced by adding TNF-α to cells. The inhibitory activity of a test compound to this apoptosis was determined by using known dexamethasone having an apoptosis inhibitory activity as the standard.
Namely, 25 μl of a culture medium (PRMI-1640, produced by Nikken Seibutsu Igaku Kenkyusho, Japan) (containing 10 weight % of fetal bovine serum) was added to each well of a 96-well microplate. Then, added was 2 μl of a solution prepared by 20 volume fold dilution of dimethylformamide (in the case of Compound No. 16) or dimethylsulfoxide (in the case of Compound Nos. 2, 4, 6, 8, 13) solution of a test compound (concentration of the test compound: 1 mM) with the above culture medium.
Subsequently, 25 μl of a solution prepared by dissolving TNF-α (Genzyme, USA)(40 ng/ml culture medium) in the above culture medium, and 50 μl of a suspension (2×10^5 cells/ml) prepared by suspending mouse fibroblast (L929 cells, IFO 50409) in the above culture medium were added, and then cells were cultivated for 72 hours at 37° C. in the presence of 5% carbon dioxide in air. The final concentration of the test compound during cultivation was 1 μM.
After cultivation, the culture medium was removed from the wells by aspiration, and 50 μl of a 5% (w/v) crystal violet/70% (v/v) methanol solution was added to each well to pigment the living cells. Then the wells were washed and dried. The apoptosis inhibitory activity of the test compound was obtained by determining the optical density by using an absorptiometer [Microplate Reader Model 450, produced by Bio-Rad] at the wavelength of 570 nm.
While, the apoptosis inhibitory activity of dexamethasone was obtained in the same manner as above except that the above test compound (final concentration: 1 μM) was replaced by dexamethasone (final concentration: 1.1 μM).
Then, the apoptosis inhibitory activity of each test compounds (final concentration: 1 μM) was calculated when the apoptosis inhibitory activity of dexamethasone (final concentration: 1.1 μM) was 100.

Row | Compound | Apoptosis inhibitory activity (%)
1 | Cc1oc(-c2ccc3ccccc3c2)nc1CCOc1ccc(CCCC2OC(=O)NC2=O)cc1 (stereo not drawn) [Compound No. 2] | 70
2 | COc1cc(CCCC2OC(=O)NC2=O)ccc1OCc1nc(-c2ccco2)oc1C (stereo not drawn) [Compound No. 4, 5-[3-[4-[2-(2-furyl)-5-methyl-4-oxazoly]methoxy]-3-methoxyphenyllpropyl]-2,4-oxazolidinedione] | 74
3 | Cc1oc(-c2ccccc2)nc1COc1ccc(CCCC2OC(=O)NC2=O)cc1 (stereo not drawn) [Compound No. 6, 5-[3-[4-(5-methyl-2-phenyl-4-oxazolylmethoxy]phenyl]propyl]-2,4-oxazolidinedione] | 70
4 | Cn1nc(CCOc2ccc(CC3SC(=O)NC3=O)cc2)nc1-c1ccccc1 (stereo not drawn) [Compound No. 8, 5-[4-[2-(1-methyl-5-phenyl-1,2,4-triazol-3-yl)ethoxy]benzyl]-2,4-thiazolidinedione] | 70
5 | CN(CCOc1ccc(CC2SC(=O)NC2=O)cc1)c1ccccn1 (stereo not drawn) [Compound No. 13, 5-[[4-[2-(methyl-2-pyridylamino)ethoxy]phenyl]methyl]-2,4-thiazolidinedione, reference compound] | 92
6 | COc1cc(CCCC2OC(=O)NC2=O)ccc1OC(C)c1nc(-c2ccccc2)oc1C (stereo not drawn) [Compound No. 16, 5-[3-[3-methoxy-4-[1-(5-methyl-2-phenyl-4-oxazolyl)ethoxy]phenyl]propyl]-2,4-oxazolidinedione] | 71
